Source: patent US20150037372A1, “pH-Responsive High-Density Lipoprotein-Like Particle Complex” (RESEARCH & BUSINESS FOUNDATION SUNGKYUNKWAN UNIVERSITY, priority 2012, published 2015)
Several values for one entry are separate records, joined by “and”; a condition that tells them apart may be missing. Equal values may be shown once.

Experiments:
ICR mice [1] = assay: In vivo safety test with endotoxin-purified apoA-I (Example 7-3)
Experimental: (§1) A solution containing the drug Epothilone B (EpoB) was sonicated in the presence of a surfactant (sodium cholate) to encapsulate the EpoB in micelles composed of the surfactant. Then, apoA-I was added to and mixed with the sonicated solution while the concentration of the surfactant was lowered below its critical micelle concentration by dilution. The remaining surfactant was removed by Bio-bead, and the remaining solution was subjected to centrifugation and size exclusion chromatography, thereby preparing an EpoB-encapsulating apoA-I (hereinafter referred to as ‘EpoB-rHDL’).
(§2) EpoB was dissolved in poly ethylene glycol 300 (PEG 300) and then diluted so that the final concentration of PEG 300 was 30% (v/v). In addition, 30% PEG 300 that is a medium for Epothilone B, and apoA-I were selected as negative controls.
(§3) Twenty-eight (seven per group) 6-week-old female ICR mice were purchased from Orientbio Inc. (Korea). The mice were subjected to veterinary inspection for general health conditions and were acclimated to the laboratory environment for 1 week. An animal test was performed in the Laboratory Animal Research Center, Sungkyunkwan University.
(§4) The test material was administered into the tail vein of the grouped ICR mice at a dose of 100 μL once a week for 4 weeks. To verify the toxicity and safety of the test material, the concentration of EpoB encapsulated in apoA-I was measured, and the poB-encapsulating apoA-I or the free EpoB was administered at a dose higher than the maximum tolerated dose of EpoB. For the first 2 weeks, the test material was administered to the ICR mice at a dose of 10 mg/kg, which corresponds four times the maximum tolerated dose of EpoB, and for the next 2 weeks, it was administered at a high EpoB dose of 81 mg/kg. The control apoA-I was administered at a dose corresponding to the concentration of apoA-I in the EpoB-encapsulating apoA-I.
(§5) To observe changes in the body weight of the mice during the test period, the body weight of the mice was measured every day after the start of the test, and diarrhea, hair loss and quadriplegia as the suspected side effects of epoB were observed.
(§6) For liver toxicity analysis, upon the death of the test animals or at the end of the test, the animals were anesthetized with a mixture of Zoletil and Rompun, and then sera were obtained by blood collection from the abdominal aorta. Alanine transferase (ALT) and aspartate transaminase (AST) in the sera were analyzed by an automatic chemistry analyzer.
(§7) Upon the death of the test animals or at the end of the test, the animals were anesthetized with a mixture of Zoletil and Rompun. Next, the liver was harvested and weighed, and the percentage of the weight of the liver relative to the body weight was comparatively analyzed. In addition, the stomach was harvested and observed to the naked eye.
Using an apoA-I purified to have an endotoxin content of 5-10 EU/mg, an EpoB-encapsulating apoA-I was prepared according to the method described in Example 7-1(1).
EpoB and the EpoB-encapsulating apoA-I were administered at doses of 10 mg/kg and 81 mg/kg, which are higher than the maximum tolerated dose of EpoB.

[2] = test system: breast cancer cell line ZR-75-1; assay: MTT cell viability assay, 72 hours; type: cell-based; conditions: ZR-75-1, overexpresses SR-B1, 72 hours
Experimental: (§8) The MTT assay was performed in the following manner: First, an MTT concentrate obtained by dissolving 3-(4,5-dimethyl-2-thiazolyl)-2,5-diphenyl-2H-tetrazolium bromide (MTT, Calbiochem) in PBS at a concentration of 5 mg/mL was filtered and diluted (10%) to prepare an MTT solution. Meanwhile, the medium and the drug were removed from the cells treated with the drug or the drug-encapsulating apoA-I, and then 100 μL of the prepared MIT solution was seeded into each well and allowed to react at 37° C. in 5% CO2 for 3 hours. After completion of the reaction, the medium and the MTT solution were removed, and 100 μL of 100% DMSO was seeded into each well and allowed to react at room temperature for 20 minutes under a light-shielded condition. After completion of the secondary reaction, the absorbance of the sample at 570 nm was measured using a spectrophotometer (Spectra M2, Molecular device), and the measured value was substituted into the following equation to determine cell viability: […]
(§9) In addition, the cancer cells were treated with free EpoB or the EpoB-encapsulating apoA-I at various EpoB concentrations for 72 hours, and the cell viability for each drug was measured using an MTT (3-(4,5-dimethylthiazol-2-yl)-2,5-diphenyltetrazolium bromide) assay. […]

[3] = test system: colorectal cancer cell line Caco-2; assay: MTT cell viability assay, 72 hours; type: cell-based; conditions: Caco-2, overexpresses SR-B1, 72 hours
Experimental: as §8, §9

ICR mice [4] = assay: Primary in vivo test using apoA-I with endotoxin content of more than 10,000 EU/mg (Example 7-2); conditions: for body weight loss / ALT / AST / Liver (%): endotoxin-containing apoA-I test; for ALT / AST: serum; for Liver (%): weight of liver relative to body weight
Experimental: as §1, §2, §3, §4, §5, §6, §7
In a primary test, an EpoB-encapsulating apoA-I was prepared using an apoA-I having an endotoxin content of more than 10,000 EU/mg and was administered to ICR mice once a week for 4 weeks.

[5] = high dose 81 mg/kg, week 3 and 4
[6] = each ICR mouse (No. 1-7), * raised by hemolysis, listed as apoA-1
[7] = group average (total), hemolysis values excluded

Molecule: C/C(=C\c1csc(C)n1)[C@@H]1C[C@@H]2O[C@]2(C)CCC[C@H](C)[C@H](O)[C@@H](C)C(=O)C(C)(C)[C@@H](O)CC(=O)O1 [EpoB, Epothilone B, reference compound]
- adverse effects in appearance examination (ICR mice [1]; 10 mg/kg at week 1 and week 2): no adverse effects were observed
- gastric hypersensitivity caused by abdominal lymphadenopathy (ICR mice [1]; autopsy): observed in the control group
- Liver (%) (ICR mice [1]; each ICR mouse (No. 1-7)): 3.45% and 4.19% and 4.85% and 6.48% and 3.79% and 5.12% and 4.33%
- hair loss (ICR mice [1]; [5]): hair loss occurred
- quadriplegia (ICR mice [1]; [5]): quadriplegia
- survival of the mice (ICR mice [1]; [5]): dead at week 3 and week 4
- body weight loss (ICR mice [1]; high dose 81 mg/kg, week 3 and 4, EpoB values are of individual animals, 81 mg/kg): about 25% and 7-17% and about 11% and 11.5%
- decrease of AST/ALT ratio compared to control group administered with EpoB (ICR mice [1]; mouse, in vivo): about 47%
- cell viability compared to treatment with the EpoB-encapsulating apoA-I [2]: higher cell viability
- cell viability compared to treatment with the EpoB-encapsulating apoA-I [3]: higher cell viability
- survival rate (ICR mice [4]; 22 days after the start of administration, tail vein once a week, endotoxin-containing apoA-I): 100%
- body weight loss (ICR mice [4]): showed a body weight loss
- ALT (ICR mice [4]): 18.1 ± .38 U/L
- AST (ICR mice [4]): 45.6 ± 9.3 U/L
- Liver (%) (ICR mice [4]): 4.7 ± 0.3%

Molecule: apoA-I: recombinant His-tagged human apolipoprotein A-I, 28 kDa, 243 amino acids; carrier protein and negative control
- ALT (ICR mice [1]; [6]): 27 U/L and 25 U/L and 29 U/L and 21 U/L and 19 U/L and 15 U/L and 16 U/L
- AST (ICR mice [1]; [6]): 64 U/L and 73 U/L and 56 U/L and 48 U/L and 69 U/L and 41 U/L and 49 U/L
- AST/ALTT (ICR mice [1]; [6]): 2.37 and 2.92 and 1.93 and 2.29 and 3.63 and 2.73 and 3.06
- Liver (%) (ICR mice [1]; each ICR mouse (No. 1-7), listed as apoA-1): 3.83% and 3.55% and 4.87% and 3.42% and 4.03% and 5% and 4.13%
- Liver (%) (ICR mice [1]; group average (total)): 4.12 ± 0.57%
- ALT (ICR mice [1]; [7]): 21.71 ± 5.03 U/L
- AST (ICR mice [1]; [7]): 57.14 ± 11.03 U/L
- AST/ALT (ICR mice [1]; [7]): 2.70 ± 0.52
- survival, body weight change and hair loss (ICR mice [1]; high dose of about 266 mg/kg): did not affect the survival, body weight change and hair loss
- body weight loss (ICR mice [4]): higher body weight loss
- toxicity (ICR mice [4]; once a week for 4 weeks, apoA-I with endotoxin more than 10,000 EU/mg): toxicity was observed
- ALT (ICR mice [4]): 34.4 ± 16.9 U/L
- AST (ICR mice [4]): 52.9 ± 13.2 U/L
- Liver (%) (ICR mice [4]): 6 ± 1.1%
